73 compounds from patent US7557213B2, “Substituted quinolones and methods of use” (ChemoCentryx, Inc., priority 2005, dated 2009) can be followed below.

T1 sequence (P25106 whole entry): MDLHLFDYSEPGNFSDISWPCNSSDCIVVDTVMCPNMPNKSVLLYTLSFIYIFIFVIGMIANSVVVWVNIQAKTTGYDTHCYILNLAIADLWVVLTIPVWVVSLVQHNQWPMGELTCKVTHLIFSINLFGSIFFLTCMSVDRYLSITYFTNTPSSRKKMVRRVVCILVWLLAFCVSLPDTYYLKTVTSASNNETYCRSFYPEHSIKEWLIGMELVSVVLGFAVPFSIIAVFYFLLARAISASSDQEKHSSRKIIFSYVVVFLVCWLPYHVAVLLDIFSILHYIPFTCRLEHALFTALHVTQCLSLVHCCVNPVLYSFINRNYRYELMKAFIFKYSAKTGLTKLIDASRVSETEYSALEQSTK

The first assay addresses T1, CCXCKR2 receptor (Homo sapiens, UniProt P25106).
T1 construct: expressed in transfected cells; host or cells: MDA-MB-435S transfected with pcDNA3.1(+)-hRDC1 and/or MCF-7 (endogenous receptor)
Briefly: Displacement of 125I-labeled SDF-1 from the CCXCKR2 receptor on MCF-7 and/or CCXCKR2-transfected MDA-MB-435S cells (radioligand binding, filtration).
Conditions: not given
(In a radioligand displacement assay an active substance lowers the binding of a labelled ligand.)
Take `Cc1cccc(Cn2cc(C(=O)c3ccc(C)c(C)c3)c(=O)c3ccccc32)c1` [Example 9]: the IC50 is less than 100 nM.

Consider `Cc1cccc(Cn2cc(C(=O)c3cccc(C)c3)c(=O)c3ccccc32)c1` [Example 20], for which the IC50 is less than 100 nM.

In turn, `Cc1ccc(C(=O)c2cn(CC3CCCCC3)c3ccccc3c2=O)cc1C` [Example 39] gave an IC50 of less than 100 nM.

Compound `Cc1ccc(C(=O)c2cn(Cc3cccc(F)n3)c3ccccc3c2=O)cc1C` [Example 70] gave an IC50 of less than 100 nM.

The assay is the same for the next values; noted with them: 125I SDF-1, 3 hr at 4° C., MCF-7 and/or MDA-MB-435S cells; read-out: Activity (concentration displacing at least 50% of the SDF-1 from the CCXCKR2 receptor).
`Cc1ccc(C(=O)c2cn(Cc3ccccn3)c3cc4c(cc3c2=O)OCO4)cc1C` [Example 1]: the IC50 was in the range of 100 to 500 nM.

Turning to `Cc1ccc(C(=O)c2cn(Cc3cccnc3)c3cc4c(cc3c2=O)OCO4)cc1C` [Example 2], the IC50 is 500 to 20000 nM.

Consider `Cc1ccc(C(=O)c2cn(Cc3ccncc3)c3cc4c(cc3c2=O)OCO4)cc1C` [Example 3], for which the IC50 lay within 500 to 20000 nM.

Regarding `Cc1ccc(C(=O)c2cn(Cc3ccccc3F)c3ccccc3c2=O)cc1C` [Example 4], the IC50 was less than 100 nM.

For `Cc1cccc(Cn2cc(C(=O)c3ccc(C)c(C)c3)c(=O)c3cc4c(cc32)OCCO4)c1` [Example 5], the IC50 lay in the range of 500 to 20000 nM.

For the compound `Cc1ccc(C(=O)c2cn(Cc3ccccc3C)c3cc4c(cc3c2=O)OCCO4)cc1C` [Example 6], the IC50 lay within 500 to 20000 nM.

Regarding `Cc1ccc(C(=O)c2cn(Cc3ccccc3F)c3cc4c(cc3c2=O)OCCO4)cc1C` [Example 7], the IC50 is 500 to 20000 nM.

On to `Cc1ccc(C(=O)c2cn(Cc3ccccn3)c3ccccc3c2=O)cc1C` [Example 8], for which the IC50 is less than 100 nM.

With `Cc1ccc(C(=O)c2cn(Cc3cccnc3)c3ccccc3c2=O)cc1C` [Example 10], the IC50 was in the range of 500 to 20000 nM.

With `Cc1ccc(C(=O)c2cn(Cc3ccccn3)c3cc4c(cc3c2=O)OCCO4)cc1C` [Example 11], the IC50 lay in the range of 500 to 20000 nM.

As to `Cc1ccc(C(=O)c2cn(Cc3cccnc3)c3cc4c(cc3c2=O)OCCO4)cc1C` [Example 12], the IC50 was 500 to 20000 nM.

On to `Cc1ccc(C(=O)c2cn(Cc3ccccn3)c3ccc(C(F)(F)F)cc3c2=O)cc1C` [Example 13], for which the IC50 was 500 to 20000 nM.

For the compound `Cc1ccc(C(=O)c2cn(Cc3ccccc3F)c3ccc(C(F)(F)F)cc3c2=O)cc1C` [Example 14], the IC50 lay within 500 to 20000 nM.

In the case of `O=C(c1ccncc1)c1cn(Cc2ccccc2F)c2ccccc2c1=O` [Example 15], the IC50 is 500 to 20000 nM.

In the case of `O=C(c1ccncc1)c1cn(Cc2ccccn2)c2ccccc2c1=O` [Example 16], the IC50 lay within 500 to 20000 nM.

In the case of `Cc1cccc(Cn2cc(C(=O)c3ccncc3)c(=O)c3ccccc32)c1` [Example 17], the IC50 was in the range of 500 to 20000 nM.

As for `Cc1cccc(Cn2cc(C(=O)c3ccccc3)c(=O)c3ccccc32)c1` [Example 18], the IC50 fell in the range of 100 to 500 nM.

Regarding `Cc1ccc(C(=O)c2cn(Cc3ccccc3F)c3cc4c(cc3c2=O)OC(F)(F)O4)cc1C` [Example 19], the IC50 was in the range of 500 to 20000 nM.

Turning to `Cc1cccc(C(=O)c2cn(Cc3ccccc3F)c3ccccc3c2=O)c1` [Example 21], the IC50 was less than 100 nM.

`Cc1cccc(C(=O)c2cn(Cc3ccccn3)c3ccccc3c2=O)c1` [Example 22]: the IC50 is less than 100 nM.

Turning to `Cc1cc(C(=O)c2cn(Cc3ccccc3F)c3ccccc3c2=O)ccn1` [Example 24], the IC50 is 500 to 20000 nM.

In the case of `Cc1cc(C(=O)c2cn(Cc3cccc(C)n3)c3ccccc3c2=O)ccn1` [Example 25], the IC50 lay within 500 to 20000 nM.

Take `Cc1cccc(Cn2cc(C(=O)c3ccnc(C)c3)c(=O)c3ccccc32)c1` [Example 26]: the IC50 was 500 to 20000 nM.

On to `Cc1ccc(C(=O)c2cn(CCc3ccccc3)c3ccccc3c2=O)cc1C` [Example 27, 3-(3,4-Dimethyl-benzoyl)-1-phenethyl-1H-quinolin-4-one], for which the IC50 lay in the range of 500 to 20000 nM.

As for `Cc1ccc(C(=O)c2cn(Cc3nnsc3Cl)c3ccccc3c2=O)cc1C` [Example 28, 1-(5-Chloro-[1,2,3]thiadiazol-4-ylmethyl)-3-(3,4-dimethyl-benzoyl)-1H-quinolin-4-one], the IC50 is less than 100 nM.

With `Cc1ccc(C(=O)c2cn(Cc3ncon3)c3ccccc3c2=O)cc1C` [Example 29], the IC50 was less than 100 nM.

`Cc1cc(Cn2cc(C(=O)c3ccc(C)c(C)c3)c(=O)c3ccccc32)no1` [Example 30, 3-(3,4-Dimethyl-benzoyl)-1-(5-methyl-isoxazol-3-ylmethyl)-1H-quinolin-4-one]: the IC50 was in the range of 100 to 500 nM.

Turning to `Cc1ccc(C(=O)c2cn(Cc3cscn3)c3ccccc3c2=O)cc1C` [Example 31], the IC50 was less than 100 nM.

Turning to `O=C(c1cccnc1)c1cn(Cc2ccccc2F)c2ccccc2c1=O` [Example 33], the IC50 was 500 to 20000 nM.

For the compound `Cc1cccc(Cn2cc(C(=O)c3cccnc3)c(=O)c3ccccc32)c1` [Example 34, 1-(3-Methyl-benzyl)-3-(pyridine-3-carbonyl)-1H-quinolin-4-one], the IC50 lay in the range of 500 to 20000 nM.

In the case of `Cc1cccc(Cn2cc(C(=O)c3cccnc3)c(=O)c3ccccc32)n1` [Example 35], the IC50 was in the range of 500 to 20000 nM.

Take `Cc1ccc(C(=O)c2cn(Cc3ccccc3C(F)(F)F)c3ccccc3c2=O)cc1C` [Example 36]: the IC50 was in the range of 500 to 20000 nM.

Take `Cc1ccc(C(=O)c2cn(Cc3ncccc3F)c3ccccc3c2=O)cc1C` [Example 37]: the IC50 is less than 100 nM.

Turning to `Cc1ccc(C(=O)c2cn(-c3ccccc3)c3ccccc3c2=O)cc1C` [Example 38], the IC50 lay in the range of 500 to 20000 nM.

On to `Cc1cc(C(=O)c2cn(Cc3ccccc3F)c3ccccc3c2=O)cnc1C` [Example 40], for which the IC50 was less than 100 nM.

Consider `Cc1ccc(C(=O)c2cn(Cc3cccc(-c4ncco4)n3)c3ccccc3c2=O)cc1C` [Example 41], for which the IC50 fell in the range of 100 to 500 nM.

In the case of `Cc1ccc(C(=O)c2cn(Cc3cccc(-c4ccccc4)n3)c3ccccc3c2=O)cc1C` [Example 42], the IC50 lay in the range of 100 to 500 nM.

Take `Cc1ccc(C(=O)c2cn(Cc3cccc(-c4cncnc4)n3)c3ccccc3c2=O)cc1C` [Example 44]: the IC50 is less than 100 nM.

With `Cc1ccc(C(=O)c2cn(Cc3cccc(C)c3F)c3ccccc3c2=O)cc1C` [Example 45], the IC50 was less than 100 nM.

As for `Cc1ccc(C(=O)c2cn(Cc3ccccc3F)c3ccncc3c2=O)cc1C` [Example 46], the IC50 lay in the range of 500 to 20000 nM.

Consider `Cc1cccc(Cn2cc(C(=O)c3ccc(C)c(C)c3)c(=O)c3cnccc32)c1` [Example 47], for which the IC50 is 100 to 500 nM.

Consider `Cc1ccc(C(=O)c2cn(Cc3cnn[nH]3)c3ccccc3c2=O)cc1C` [Example 48], for which the IC50 fell in the range of 100 to 500 nM.

For `Cc1ccc(C(=O)c2cn(Cc3ccccc3F)c3ccccc3c2=O)nc1C` [Example 49], the IC50 was less than 100 nM.

`Cc1cccc(Cn2cc(C(=O)c3cnc(C)c(C)c3)c(=O)c3ccccc32)n1` [Example 50]: the IC50 was less than 100 nM.

For `Cc1ccc(C(=O)c2cn(Cc3cccc(Br)n3)c3ccccc3c2=O)cc1C` [Example 51], the IC50 was less than 100 nM.

For the compound `CC(=O)Nc1cccc(Cn2cc(C(=O)c3ccc(C)c(C)c3)c(=O)c3ccccc32)n1` [Example 52], the IC50 was in the range of 100 to 500 nM.

Regarding `Cc1ccc(C(=O)c2cn(Cc3cccc(Br)n3)c3ccc(F)cc3c2=O)cc1C` [Example 53], the IC50 was less than 100 nM.

Turning to `Cc1cc(C(=O)c2cn(Cc3cccc(Br)n3)c3ccccc3c2=O)cnc1C` [Example 54], the IC50 was less than 100 nM.

For `Cc1cccc(Cn2cc(C(=O)c3cnc(C)c(C)c3)c(=O)c3cc(F)ccc32)c1` [Example 55], the IC50 was less than 100 nM.

Consider `Cc1ccc(C(=O)c2cn(Cc3ncccn3)c3ccccc3c2=O)cc1C` [Example 56], for which the IC50 was less than 100 nM.

Turning to `Cc1ccc(C(=O)c2cn(Cc3cnccn3)c3ccccc3c2=O)cc1C` [Example 57], the IC50 is less than 100 nM.

Regarding `Cc1ccc(C(=O)c2cn(Cc3c(C)cccc3C)c3ccccc3c2=O)cc1C` [Example 58], the IC50 was in the range of 500 to 20000 nM.

`Cc1ccc(C(=O)c2cn(Cc3cccc(Br)n3)c3cc(F)ccc3c2=O)cc1C` [Example 59]: the IC50 was less than 100 nM.

As for `Cc1ccc(C(=O)c2cn(Cc3cccc(NS(C)(=O)=O)n3)c3ccccc3c2=O)cc1C` [Example 60], the IC50 was 100 to 500 nM.

Turning to `O=C(c1cnccn1)c1cn(Cc2ccccc2F)c2ccccc2c1=O` [Example 61], the IC50 is 500 to 20000 nM.

On to `Cc1cccc(Cn2cc(C(=O)c3cnccn3)c(=O)c3ccccc32)c1` [Example 62], for which the IC50 fell in the range of 500 to 20000 nM.

Consider `Cc1cccc(Cn2cc(C(=O)c3cnccn3)c(=O)c3ccccc32)n1` [Example 63], for which the IC50 was 500 to 20000 nM.

As to `Cc1ccc(C(=O)c2cn(Cc3cccc(Br)n3)c3ccccc3c2=O)nc1C` [Example 64], the IC50 is less than 100 nM.

Take `Cc1ccc(C(=O)c2cn(Cc3ccc(C(F)(F)F)o3)c3ccccc3c2=O)cc1C` [Example 65]: the IC50 is less than 100 nM.

For the compound `Cc1ccc(C(=O)c2cn(Cc3cccc(C(F)(F)F)n3)c3ccccc3c2=O)cc1C` [Example 66], the IC50 is less than 100 nM.

Take `Cc1cc(C(=O)c2cn(Cc3cccc(Br)n3)c3ccc(F)cc3c2=O)cnc1C` [Example 67]: the IC50 was less than 100 nM.

With `Cc1ccc(C(=O)c2cn(Cc3cccc(N4CCCCC4)n3)c3ccccc3c2=O)cc1C` [Example 68], the IC50 was less than 100 nM.

For the compound `COc1cccc(Cn2cc(C(=O)c3ccc(C)c(C)c3)c(=O)c3ccccc32)n1` [Example 69], the IC50 was less than 100 nM.

Take `Cc1ccc(C(=O)c2cn(Cc3cccc(N4CCOCC4)n3)c3ccccc3c2=O)cc1C` [Example 71]: the IC50 was in the range of 100 to 500 nM.

In the case of `Cc1ccc(C(=O)c2c(C)n(Cc3cccc(Br)n3)c3ccccc3c2=O)cc1C` [Example 72], the IC50 fell in the range of 500 to 20000 nM.

Consider `Cc1ccc(C(=O)c2cn(Cc3cccc(Br)n3)c3cc(F)c(F)cc3c2=O)cc1C` [Example 73], for which the IC50 was less than 100 nM.

For the compound `Cc1ccc(C(=O)c2cn(Cc3cccc(C4CC4)n3)c3ccccc3c2=O)cc1C` [Example 74], the IC50 was less than 100 nM.

On to `Cc1ccc(C(=O)c2cn(C(C)c3cccc(Br)n3)c3ccccc3c2=O)cc1C` (stereo not shown) [Example 75], for which the IC50 was less than 100 nM.

For `Cc1ccc(C(=O)c2cn(C(C)c3cccc(Br)n3)c3ccccc3c2=O)nc1C` (stereo not shown) [Example 76], the IC50 is less than 100 nM.
